Data from patent publication US20260042764A1, “COMPOSITIONS AND METHODS FOR INHIBITION OF KRAS” (TheRas, Inc., priority 2022, published 2026).
pIC50: −log10 of the molar value.

Target: T1, Avi-KRAS G12D (1-169) GppNHp/RAF1 RBD-3xFLAG (52-151) (Homo sapiens, UniProt P01116, G12D)
T1 construct: Avi-KRAS G12D (1-169)
Assay: Raf1-KRAS G12D-GppNHP disruption HTRF assay (Biological Example 1)
Assay type: binding
Conditions: KRAS G12D-GppNHp/RAF1 RBD HTRF
How it was run: (§1)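 Compounds were tested for disruption of KRAS–RAF1 RBD binding by HTRF in 50 mM Tris pH 7.5, 100 mM NaCl, 5 mM MgCl2, 0.1% BSA, 0.01% Tween, 10% DMSO. Protein mix was incubated 1 h at room temperature with shaking, then detection reagents added for another 1 h. Activity expressed as percent of DMSO control.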

T1 sequence (P01116 1-169 isoform P01116-2 G12D): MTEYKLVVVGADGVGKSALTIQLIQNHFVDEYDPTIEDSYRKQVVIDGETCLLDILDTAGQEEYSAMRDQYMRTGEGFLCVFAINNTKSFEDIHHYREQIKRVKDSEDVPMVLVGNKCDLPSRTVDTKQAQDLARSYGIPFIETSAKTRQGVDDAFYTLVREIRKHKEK

SMILES	pIC50
CC(=O)N1CCC[C@H](N(C)c2nc(OC[C@@]34CCCN3C[C@H](F)C4)nc3c(F)c(-c4ccc(F)c5sc(N)c(C#N)c45)c(C(F)(F)F)cc23)C1 [Compound 289]	6.00 to 7.00
N#Cc1c(N)sc2c(F)ccc(-c3c(C(F)(F)F)cc4c(N5CCCC[C@H](O)C5)nc(OC[C@@]56CCCN5C[C@H](F)C6)nc4c3F)c12 [Compound 290]	6.00 to 7.00
N#Cc1c(N)sc2c(F)ccc(-c3c(C(F)(F)F)cc4c(N5CC6COC(C6)C5)nc(OC[C@@]56CCCN5C[C@H](F)C6)nc4c3F)c12 (stereo partly drawn) [Compound 292]	6.00 to 7.00
N#Cc1c(N)sc2c(F)ccc(-c3c(C(F)(F)F)cc4c(N5CC6COC[C@H]6C5)nc(OC[C@@]56CCCN5C[C@H](F)C6)nc4c3F)c12 (stereo partly drawn) [Compound 293]	6.00 to 7.00
N#Cc1c(N)sc2c(F)ccc(-c3c(C(F)(F)F)cc4c(N5CCn6cnnc6C5)nc(OC[C@@]56CCCN5C[C@H](F)C6)nc4c3F)c12 [Compound 294]	6.00 to 7.00
CC(=O)N1CCC[C@@H](N(C)c2nc(OC[C@@]34CCCN3C[C@H](F)C4)nc3c(F)c(-c4ccc(F)c5sc(N)c(C#N)c45)c(C(F)(F)F)cc23)C1 [Compound 295]	6.00 to 7.00
CC(=O)N1CCC(N(C)c2nc(OC[C@@]34CCCN3C[C@H](F)C4)nc3c(F)c(-c4ccc(F)c5sc(N)c(C#N)c45)c(C(F)(F)F)cc23)CC1 [Compound 296]	6.00 to 7.00

Target: T2, Avi-KRAS G12R (1-169) GppNHp/RAF1 RBD-3xFLAG (52-151) (Homo sapiens, UniProt P01116, G12R)
T2 construct: Avi-KRAS G12R (1-169)
T2 sequence (P01116 1-169 isoform P01116-2 G12R): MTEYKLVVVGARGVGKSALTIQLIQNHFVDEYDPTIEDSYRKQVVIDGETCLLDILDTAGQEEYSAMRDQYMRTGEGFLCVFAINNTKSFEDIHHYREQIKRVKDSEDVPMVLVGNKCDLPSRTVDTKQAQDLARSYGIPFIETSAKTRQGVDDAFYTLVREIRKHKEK
Assay: Raf1-KRAS G12R-GppNHP disruption HTRF assay (Biological Example 1)
Assay type: binding
Conditions: KRAS G12R-GppNHp/RAF1 RBD HTRF
How it was run: as §1

SMILES	pIC50
CC(=O)N1CCC[C@H](N(C)c2nc(OC[C@@]34CCCN3C[C@H](F)C4)nc3c(F)c(-c4ccc(F)c5sc(N)c(C#N)c45)c(C(F)(F)F)cc23)C1 [Compound 289]	6.00 to 7.00
N#Cc1c(N)sc2c(F)ccc(-c3c(C(F)(F)F)cc4c(N5CCCC[C@H](O)C5)nc(OC[C@@]56CCCN5C[C@H](F)C6)nc4c3F)c12 [Compound 290]	6.00 to 7.00
N#Cc1c(N)sc2c(F)ccc(-c3c(C(F)(F)F)cc4c(N5CC6COC(C6)C5)nc(OC[C@@]56CCCN5C[C@H](F)C6)nc4c3F)c12 (stereo partly drawn) [Compound 292]	6.00 to 7.00
N#Cc1c(N)sc2c(F)ccc(-c3c(C(F)(F)F)cc4c(N5CC6COC[C@H]6C5)nc(OC[C@@]56CCCN5C[C@H](F)C6)nc4c3F)c12 (stereo partly drawn) [Compound 293]	6.00 to 7.00
N#Cc1c(N)sc2c(F)ccc(-c3c(C(F)(F)F)cc4c(N5CCn6cnnc6C5)nc(OC[C@@]56CCCN5C[C@H](F)C6)nc4c3F)c12 [Compound 294]	6.00 to 7.00
CC(=O)N1CCC[C@@H](N(C)c2nc(OC[C@@]34CCCN3C[C@H](F)C4)nc3c(F)c(-c4ccc(F)c5sc(N)c(C#N)c45)c(C(F)(F)F)cc23)C1 [Compound 295]	6.00 to 7.00
CC(=O)N1CCC(N(C)c2nc(OC[C@@]34CCCN3C[C@H](F)C4)nc3c(F)c(-c4ccc(F)c5sc(N)c(C#N)c45)c(C(F)(F)F)cc23)CC1 [Compound 296]	6.00 to 7.00

Target: T3, Avi-KRAS G12V (1-169) GppNHp/RAF1 RBD-3xFLAG (52-151) (Homo sapiens, UniProt P01116, G12V)
T3 construct: Avi-KRAS G12V (1-169)
T3 sequence (P01116 1-169 isoform P01116-2 G12V): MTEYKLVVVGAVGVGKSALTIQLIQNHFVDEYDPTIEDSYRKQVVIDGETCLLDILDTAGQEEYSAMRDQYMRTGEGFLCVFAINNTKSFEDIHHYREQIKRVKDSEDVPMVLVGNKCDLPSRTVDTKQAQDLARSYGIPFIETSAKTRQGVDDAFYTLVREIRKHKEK
Assay: Raf1-KRAS G12V-GppNHP disruption HTRF assay (Biological Example 1)
Assay type: binding
Conditions: KRAS G12V-GppNHp/RAF1 RBD HTRF
How it was run: as §1

SMILES	pIC50
CC(=O)N1CCC[C@H](N(C)c2nc(OC[C@@]34CCCN3C[C@H](F)C4)nc3c(F)c(-c4ccc(F)c5sc(N)c(C#N)c45)c(C(F)(F)F)cc23)C1 [Compound 289]	6.00 to 7.00
N#Cc1c(N)sc2c(F)ccc(-c3c(C(F)(F)F)cc4c(N5CCCC[C@H](O)C5)nc(OC[C@@]56CCCN5C[C@H](F)C6)nc4c3F)c12 [Compound 290]	6.00 to 7.00
N#Cc1c(N)sc2c(F)ccc(-c3c(C(F)(F)F)cc4c(N5CC6COC(C6)C5)nc(OC[C@@]56CCCN5C[C@H](F)C6)nc4c3F)c12 (stereo partly drawn) [Compound 292]	5.00 to 6.00
N#Cc1c(N)sc2c(F)ccc(-c3c(C(F)(F)F)cc4c(N5CC6COC[C@H]6C5)nc(OC[C@@]56CCCN5C[C@H](F)C6)nc4c3F)c12 (stereo partly drawn) [Compound 293]	5.00 to 6.00
N#Cc1c(N)sc2c(F)ccc(-c3c(C(F)(F)F)cc4c(N5CCn6cnnc6C5)nc(OC[C@@]56CCCN5C[C@H](F)C6)nc4c3F)c12 [Compound 294]	6.00 to 7.00
CC(=O)N1CCC[C@@H](N(C)c2nc(OC[C@@]34CCCN3C[C@H](F)C4)nc3c(F)c(-c4ccc(F)c5sc(N)c(C#N)c45)c(C(F)(F)F)cc23)C1 [Compound 295]	6.00 to 7.00
CC(=O)N1CCC(N(C)c2nc(OC[C@@]34CCCN3C[C@H](F)C4)nc3c(F)c(-c4ccc(F)c5sc(N)c(C#N)c45)c(C(F)(F)F)cc23)CC1 [Compound 296]	6.00 to 7.00

Target: T4, Avi-KRAS WT (1-169) GppNHp/RAF1 RBD-3xFLAG (52-151) (Homo sapiens, UniProt P01116)
T4 construct: Avi-KRAS WT (1-169)
T4 sequence (P01116 1-169 isoform P01116-2): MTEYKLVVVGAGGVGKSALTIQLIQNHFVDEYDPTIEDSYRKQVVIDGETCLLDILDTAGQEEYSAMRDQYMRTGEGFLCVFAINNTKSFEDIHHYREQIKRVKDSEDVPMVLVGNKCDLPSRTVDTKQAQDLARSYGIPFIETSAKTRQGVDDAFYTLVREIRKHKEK
Assay: Raf1-KRAS WT-GppNHP disruption HTRF assay (Biological Example 1)
Assay type: binding
Conditions: KRAS WT-GppNHp/RAF1 RBD HTRF
How it was run: as §1

SMILES	pIC50
CC(=O)N1CCC[C@H](N(C)c2nc(OC[C@@]34CCCN3C[C@H](F)C4)nc3c(F)c(-c4ccc(F)c5sc(N)c(C#N)c45)c(C(F)(F)F)cc23)C1 [Compound 289]	6.00 to 7.00
N#Cc1c(N)sc2c(F)ccc(-c3c(C(F)(F)F)cc4c(N5CCCC[C@H](O)C5)nc(OC[C@@]56CCCN5C[C@H](F)C6)nc4c3F)c12 [Compound 290]	6.00 to 7.00
N#Cc1c(N)sc2c(F)ccc(-c3c(C(F)(F)F)cc4c(N5CC6COC(C6)C5)nc(OC[C@@]56CCCN5C[C@H](F)C6)nc4c3F)c12 (stereo partly drawn) [Compound 292]	6.00 to 7.00
N#Cc1c(N)sc2c(F)ccc(-c3c(C(F)(F)F)cc4c(N5CC6COC[C@H]6C5)nc(OC[C@@]56CCCN5C[C@H](F)C6)nc4c3F)c12 (stereo partly drawn) [Compound 293]	6.00 to 7.00
N#Cc1c(N)sc2c(F)ccc(-c3c(C(F)(F)F)cc4c(N5CCn6cnnc6C5)nc(OC[C@@]56CCCN5C[C@H](F)C6)nc4c3F)c12 [Compound 294]	6.00 to 7.00
CC(=O)N1CCC[C@@H](N(C)c2nc(OC[C@@]34CCCN3C[C@H](F)C4)nc3c(F)c(-c4ccc(F)c5sc(N)c(C#N)c45)c(C(F)(F)F)cc23)C1 [Compound 295]	6.00 to 7.00
CC(=O)N1CCC(N(C)c2nc(OC[C@@]34CCCN3C[C@H](F)C4)nc3c(F)c(-c4ccc(F)c5sc(N)c(C#N)c45)c(C(F)(F)F)cc23)CC1 [Compound 296]	6.00 to 7.00

Test system: GP2d cells (KRAS G12D)
Assay: Cell-based pERK HTRF assay in GP2d cell (Biological Example 2)
Conditions: GP2d, GP2d (KRAS G12D) cells, pERK HTRF
How it was run: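 HTRF read-out of pERK (excitation 320 nm, emission 615 nm) after lysates sat 4–24 h at room temperature with Eu cryptate and d2 antibodies.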

SMILES	pIC50
CC(=O)N1CCC[C@H](N(C)c2nc(OC[C@@]34CCCN3C[C@H](F)C4)nc3c(F)c(-c4ccc(F)c5sc(N)c(C#N)c45)c(C(F)(F)F)cc23)C1 [Compound 289]	> 7.00
N#Cc1c(N)sc2c(F)ccc(-c3c(C(F)(F)F)cc4c(N5CCCC[C@H](O)C5)nc(OC[C@@]56CCCN5C[C@H](F)C6)nc4c3F)c12 [Compound 290]	> 7.00
N#Cc1c(N)sc2c(F)ccc(-c3c(C(F)(F)F)cc4c(N5CC6COC(C6)C5)nc(OC[C@@]56CCCN5C[C@H](F)C6)nc4c3F)c12 (stereo partly drawn) [Compound 292]	> 7.00
N#Cc1c(N)sc2c(F)ccc(-c3c(C(F)(F)F)cc4c(N5CC6COC[C@H]6C5)nc(OC[C@@]56CCCN5C[C@H](F)C6)nc4c3F)c12 (stereo partly drawn) [Compound 293]	> 7.00
N#Cc1c(N)sc2c(F)ccc(-c3c(C(F)(F)F)cc4c(N5CCn6cnnc6C5)nc(OC[C@@]56CCCN5C[C@H](F)C6)nc4c3F)c12 [Compound 294]	6.00 to 7.00
CC(=O)N1CCC[C@@H](N(C)c2nc(OC[C@@]34CCCN3C[C@H](F)C4)nc3c(F)c(-c4ccc(F)c5sc(N)c(C#N)c45)c(C(F)(F)F)cc23)C1 [Compound 295]	> 7.00
CC(=O)N1CCC(N(C)c2nc(OC[C@@]34CCCN3C[C@H](F)C4)nc3c(F)c(-c4ccc(F)c5sc(N)c(C#N)c45)c(C(F)(F)F)cc23)CC1 [Compound 296]	> 7.00

Test system: SW620 cells (KRAS G12V)
Assay: Cell-based pERK HTRF assay in SW620 cell (Biological Example 4)
Conditions: Homo sapiens, SW-620, SW620 (KRAS G12V) cells, pERK HTRF
How it was run: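 SW620 cells were treated for 4 h with compound in a 9-point half-log series from 1 μM top (0.25% DMSO), then lysed. Phospho-ERK was detected by HTRF with d2 and Eu cryptate antibodies after 4–24 h at room temperature, read at 615 nm emission.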

SMILES	pIC50
CC(=O)N1CCC[C@H](N(C)c2nc(OC[C@@]34CCCN3C[C@H](F)C4)nc3c(F)c(-c4ccc(F)c5sc(N)c(C#N)c45)c(C(F)(F)F)cc23)C1 [Compound 289]	> 7.00
N#Cc1c(N)sc2c(F)ccc(-c3c(C(F)(F)F)cc4c(N5CCCC[C@H](O)C5)nc(OC[C@@]56CCCN5C[C@H](F)C6)nc4c3F)c12 [Compound 290]	> 7.00
N#Cc1c(N)sc2c(F)ccc(-c3c(C(F)(F)F)cc4c(N5CC6COC(C6)C5)nc(OC[C@@]56CCCN5C[C@H](F)C6)nc4c3F)c12 (stereo partly drawn) [Compound 292]	> 7.00
N#Cc1c(N)sc2c(F)ccc(-c3c(C(F)(F)F)cc4c(N5CC6COC[C@H]6C5)nc(OC[C@@]56CCCN5C[C@H](F)C6)nc4c3F)c12 (stereo partly drawn) [Compound 293]	> 7.00
N#Cc1c(N)sc2c(F)ccc(-c3c(C(F)(F)F)cc4c(N5CCn6cnnc6C5)nc(OC[C@@]56CCCN5C[C@H](F)C6)nc4c3F)c12 [Compound 294]	6.00 to 7.00
CC(=O)N1CCC[C@@H](N(C)c2nc(OC[C@@]34CCCN3C[C@H](F)C4)nc3c(F)c(-c4ccc(F)c5sc(N)c(C#N)c45)c(C(F)(F)F)cc23)C1 [Compound 295]	> 7.00
CC(=O)N1CCC(N(C)c2nc(OC[C@@]34CCCN3C[C@H](F)C4)nc3c(F)c(-c4ccc(F)c5sc(N)c(C#N)c45)c(C(F)(F)F)cc23)CC1 [Compound 296]	6.00 to 7.00
